Data on eleven molecules can be found in patent US20030113665A1, “Optical data medium containing, in the information layer, a dye as a light-absorbing compound” (priority 2001, published 2003).

Data set [1] is described as follows: Recording/readout test of optical disc with vapour-deposited phthalocyanine information layer. From the text: Directly on top of the grooved surface the information layer of 40 nm was coated by vacuum vapor deposition method. […] Total thickness of the adhesive layer and the cover layer was set as 100 μm.
The parameters of readout/recording setup was as follows.
Numerical aperture of the objective lens=0.85, two element lens
Readout laser power=0.30 mW
Writing laser power=6.0 mW
Pulse strategy=7 pulses with 50% duty inside one mark
The dye dichloro-silicon-phthalocyanine (SiCl2Pc) was applied for the information layer.

A short description of data set [2]: UV absorption spectra in solution. The class given is physicochemical. The following applies: for UV (DMF): λmax: in DMF; for UV (dioxane): λmax: in dioxane; for λmax: in dioxane (Tables 1-3); for λ1/2-λ1/10: on the shortwave slope (Tables 1-3). From the text:
For a, preferably singly recordable, optical data carrier according to the invention which is written and read by light from a blue laser such merocyanine dyes are preferred whose absorption maximum λmax2 is in the range from 420 bis 550 nm, wherein the wavelength λ½ at which the extinction on the shortwave slope of the absorption maximum of the wavelength λmax2 is half the extinction value at λmax2 and the wavelength λ 1/10 at which the extinction on the shortwave slope of the absorption maximum of the wavelength λmax2 is a tenth of the extinction value at λmax2, are preferably in each case no further than 50 nm away from each other.
The absorption spectra are measured for example in solution.
Suitable merocyanines having the required spectral properties are in particular those in which the change in dipole moment Δμ=|μg-μag|, i.e. the positive difference between the dipole moments in the ground state and in the first excited state, is as small as possible, preferably <5 D, and particularly preferably <2 D. One method of determining such a change in dipole moment Δμ is described for example in F. Würthner et al., Angew. Chem. 1997, 109, 2933 and in the literature cited therein. Low solvatochromism (dioxane/DMF) is also a suitable criterion for selection. Merocyanines are preferred whose solvatochromism Δλ=|λDMF-λdioxane|, i.e. the positive difference between the absorption wavelengths in the solvents dimethylformamide and dioxane is <20 nm, particularly preferably <10 nm and very particularly preferably <5 nm.

The nature of data set [3]: Solubility in coating solvent. Conditions: in TFP (2,2,3,3-tetrafluoropropanol). The class given is physicochemical.
A short description of data set [4]: UV absorption spectra in solution. In kind it is physicochemical.
[5] abbreviates: molar extinction coefficient at absorption maximum.
The mark [6] stands for this setting: = |λDMF − λdioxane| (Tables 1-3).

Like-named read-outs stand apart in the source and are kept apart here.

On to `[Cl][Al]1[n]2c3c4ccccc4c2/N=C2N=C(/N=c4/c5ccccc5/c([n]41)=N/C1=NC(=N\3)/c3ccccc31)c1ccccc1\2` [Example 1, monochloro-aluminium-phthalocyanine], for which, in data set [1], the readout stability entry is “surprisingly good”.
`CCCCN1C(=O)C(C#N)=C(C)/C(=C\C=C2/N(C)c3ccccc3C2(C)C)C1=O` [Example 24]: in data set [2], the “UV (DMF): λmax” value was 522 nm and the “UV (dioxane): λmax” value came out at 520 nm. Moreover, the Solubility in data set [3] is over 2%. For the same molecule, the “λ½-λ1/10 (longwave slope)” value in data set [4] is recorded as 12 nm.
For `CCCN1C(=O)C(C#N)=C(C)/C(=C\C=C\N(C)c2ccc(OC)cc2)C1=O` [Example 25], in data set [2], the “UV (DMF): λmax” value worked out at 477 nm, the “UV (dioxane): λmax” value is given as 482 nm and the “λ½-λ1/10 (shortwave slope)” value is recorded as 33 nm. In addition, the ε in data set [2] (setting [5]) was found to be 73013 L/mol/cm. Further, the Δλ in data set [2] (solvatochromism |λDMF-λdioxane|) came to 5 nm. The molecule also registered a Solubility in data set [3] of over 2%.
Turning to `CC1=C([n+]2ccccc2)C(=O)NC(=O)/C1=C/C=C1\N(C)c2ccccc2C1(C)C` [Example 26], the “UV (methanol): λmax” value in data set [2] (in methanol) amounted to 513 nm. Moreover, the ε in data set [2] (setting [5]) is 86510 L/mol/cm. Moreover, the “λ½-λ1/10 (shortwave slope)” value in data set [2] is recorded as 38 nm.
With `CCCCCCCCCCCCN1C(=O)/C(=C/c2ccc(N(C)C)o2)C(=O)N(C)C1=O` [Example 27], in data set [2], the “UV (dioxane): λmax” value worked out at 483 nm and the “λ½-λ1/10 (shortwave slope)” value was 32 nm.
In the case of `Cc1cnc(N(C)C)s1` [Example 28], in data set [2] (setting [6]), the Δλ is 16 nm. In data set [2] (Tables 1-3), the ε came to 40990 L/mol/cm. In data set [2], the λmax was found to be 470 nm and the λ1/2-λ1/10 is listed as 32^3) nm.
Molecule `C=C1N(C)c2ccccc2C1(C)C` [Example 56] registered a Δλ in data set [2] (setting [6]) of 5 nm. This molecule yielded a ε in data set [2] (Tables 1-3) of 46470 L/mol/cm. Also, in data set [2], the λmax stood at 499 nm and the λ1/2-λ1/10 is recorded as 36^3) nm.
In data set [2] (setting [6]), `C=C1N(C)c2ccc(C)cc2C1(C)C` [Example 63] returned a Δλ of 6 nm. The molecule further yielded a ε in data set [2] (Tables 1-3) of 41530 L/mol/cm. In addition, in data set [2], the λmax was 503 nm and the λ1/2-λ1/10 was 36^3) nm.
In the case of `CN1/C(=C\C=C(\C#N)c2nc3ccccc3s2)C(C)(C)c2ccccc21` [Example 76], in data set [2], the λmax came to 462 nm and the λ1/2-λ1/10 is given as 34^3) nm.
Take `C=C1N(CCCCN2C(=C)C(C)(C)c3ccccc32)c2ccccc2C1(C)C` [Example 77]: the λmax in data set [2] was 500 nm.
With “dichloro-silicon-phthalocyanine [Example 2]”, in data set [1] (SiO2 buffer layer and PSA layer, 100 μm cover), the readout stability entry was “very high”.
